Measured values: the NIST ThermoML archive (doi:10.1021/je900400v)
Numbers after ± are expanded uncertainties.

Settings: Liquid, Closed cell (Static) method

SMILES | vapor or sublimation pressure (271.88 K) | vapor or sublimation pressure (295.53 K) | vapor or sublimation pressure (300.47 K) | vapor or sublimation pressure (303.11 K) | vapor or sublimation pressure (306.5 K) | vapor or sublimation pressure (310.48 K) | vapor or sublimation pressure (312.64 K) | vapor or sublimation pressure (318.16 K) | vapor or sublimation pressure (272.33 K) | vapor or sublimation pressure (279.64 K) | vapor or sublimation pressure (299.34 K) | vapor or sublimation pressure (302.24 K) | vapor or sublimation pressure (312.33 K) | vapor or sublimation pressure (317.63 K)
FC(F)(F)C1(F)OC1(F)F (centres undefined) [2,2,3-trifluoro-3-(trifluoromethyl)oxirane] | 302.2 ± 1.5 kPa | 649.9 ± 2.1 kPa | 745.6 ± 2.2 kPa | 798.5 ± 2.3 kPa | 874.7 ± 2.5 kPa | 970.1 ± 2.7 kPa | 1024.9 ± 2.9 kPa | 1175.3 ± 3.1 kPa | – | – | – | – | – | –
FC(F)=C(F)C(F)(F)F [hexafluoropropene] | – | – | – | – | – | – | – | – | 327.1 ± 1.4 kPa | 420.7 ± 1.7 kPa | 763.3 ± 2.2 kPa | 825.7 ± 2.4 kPa | 1077.3 ± 2.8 kPa | 1232.1 ± 3.1 kPa
